Experimental data taken from PubChem BioAssay AID602206 (Sanford-Burnham Center for Chemical Genomics, 2012).
Activity calls are given as the source filed them. The rule behind the calls is not given here.

Molecular target: Bcl-2-related protein A1 (Mus musculus) (UniProt Q07440)
Test: off-target activity on mouse Bfl-1 – biochemical, set 3, counter-screen for UBC13 polyubiquitination inhibitor project, SAR follow-up (AID 602206)
Settings: Bfl-1 / peptide binding counterscreen, TR-FRET

Bcl-2-related protein A1 (Mus musculus), sequence (Q07440 whole entry, looked up): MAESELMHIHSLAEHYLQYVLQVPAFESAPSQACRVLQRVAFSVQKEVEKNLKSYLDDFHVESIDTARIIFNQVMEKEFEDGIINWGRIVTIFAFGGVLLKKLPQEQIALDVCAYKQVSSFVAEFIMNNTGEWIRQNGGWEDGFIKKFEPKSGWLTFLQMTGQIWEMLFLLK

Row | Structure (SMILES) | IC50
1 | COc1cc(OC)c(NC(=O)C2CCN(c3ncnc4c3nc3n4CCCCC3)CC2)cc1Cl | > 100 µM (inactive)
2 | c1nc(N2CCC(N3CCCCC3)CC2)c2nc3n(c2n1)CCCC3 | > 100 µM (inactive)
3 | c1ccc(CN2CCN(c3ncnc4c3nc3n4CCCC3)CC2)cc1 | > 100 µM (inactive)
4 | Cc1ccc(NC(=O)C2CCN(c3ncnc4c3nc3n4CCCCC3)CC2)cc1F | > 100 µM (inactive)
5 | O=C(Nc1ccc(CN2CCCCC2)cc1)C1CCN(c2ncnc3c2nc2n3CCCCC2)CC1 | > 100 µM (inactive)
6 | O=C(CCCCCN1C(=O)c2ccccc2C1=O)NCCc1ccccc1 | > 100 µM (inactive)
7 | Cc1cc(Cl)ccc1NC(=O)C1CCN(c2ncnc3c2nc2n3CCCCC2)CC1 | > 100 µM (inactive)
8 | CC1CN(S(=O)(=O)c2ccc(NC(=O)CCCCCN3C(=O)c4ccccc4C3=O)cc2)CC(C)O1 (centres undefined) | > 100 µM (inactive)
9 | COc1ccc(NC(=O)C2CCN(c3ncnc4c3nc3n4CCCCC3)CC2)cc1Cl | > 100 µM (inactive)
10 | Cc1c(Cl)cccc1NC(=O)C1CCN(c2ncnc3c2nc2n3CCCCC2)CC1 | > 100 µM (inactive)
11 | CCOc1ccc(CCNC(=O)CCCCCN2C(=O)c3ccccc3C2=O)cc1OCC | > 100 µM (inactive)
12 | O=C(Nc1cc(F)ccc1F)C1CCN(c2ncnc3c2nc2n3CCCCC2)CC1 | > 100 µM (inactive)
13 | O=C(Nc1cccc(Cl)c1)C1CCN(c2ncnc3c2nc2n3CCCCC2)CC1 | > 100 µM (inactive)

Further lines, results first:

Row | IC50 | Structure (SMILES)
14 | > 100 µM (inactive) | Cc1ccc(NC(=O)C2CCN(c3ncnc4c3nc3n4CCCCC3)CC2)c(Cl)c1
15 | > 100 µM (inactive) | COc1ccc(Cl)cc1NC(=O)C1CCN(c2ncnc3c2nc2n3CCCCC2)CC1
16 | > 100 µM (inactive) | COc1cc(Cl)c(C)cc1NC(=O)C1CCN(c2ncnc3c2nc2n3CCCCC2)CC1
17 | > 100 µM (inactive) | Cc1ccc(Cl)cc1N1CCN(c2ncnc3c2nc2n3CCCC2)CC1
18 | > 100 µM (inactive) | Fc1ccccc1N1CCN(c2ncnc3c2nc2n3CCCC2)CC1
19 | > 100 µM (inactive) | Cc1ccc(NC(=O)C2CCN(c3ncnc4c3nc3n4CCCCC3)CC2)cc1C
